Tests used:
Format in all cases: in vivo
[1] = tested on: Cabbage Looper (Trichloplusia Ni, TRIPNI); assay: Insecticidal test for cabbage looper (CL), 128-well diet tray assay; settings: Trichoplusia ni, 168 h, read-out: CL % Control (or Mortality) rating
Protocol: Insecticidal Test for Cabbage Looper (Trichloplusia Ni, TRIPNI) (“CL”)
(§1) Bioassays on cabbage looper (CL; Trichloplusia ni: Lepidoptera) are conducted using a 128-well diet tray assay. One to five second instar CL larvae are placed in each well (3 mL) of the diet tray that had been previously filled with 1 mL of artificial diet to which 50 μg/cm^2 of the test compound (dissolved in 50 μL of 90:10 acetone-water mixture) had been applied (to each of eight wells) and then allowed to dry. Trays are covered with a clear self-adhesive cover, vented to allow gas exchange, and held at 25° C., 14:10 light-dark for five to seven days. Percent mortality is recorded for the larvae in each well; activity in the eight wells is then averaged.

[2] = tested on: Yellow Fever Mosquito (Aedes aegypti, AEDSAE); assay: Insecticidal test for yellow fever mosquito (YFM), 96-well plate larval assay; settings: from 4000 ppm DMSO master solution, diluted; about 1 day-old larvae; room temperature; scored after 3 days
Protocol: Insecticidal Test for Yellow Fever Mosquito (Aedes aegypti, AEDSAE) (“YFM”)
Master plates containing 400 μg of a molecule dissolved in 100 μL of dimethyl sulfoxide (DMSO) (equivalent to a 4000 ppm solution) are used. A master plate of assembled molecules contains 15 μL per well. To this plate, 135 μL of a 90:10 water/acetone mixture is added to each well. A robot (Biomek® NXP Laboratory Automation Workstation) is programmed to dispense 15 μL aspirations from the master plate into an empty 96-well shallow plate (“daughter” plate). There are 6 reps (“daughter” plates) created per master. The created “daughter” plates are then immediately infested with YFM larvae.
The day before plates are to be treated, mosquito eggs are placed in Millipore water containing liver powder to begin hatching (4 g. into 400 mL). After the “daughter” plates are created using the robot, they are infested with 220 μL of the liver powder/larval mosquito mixture (about 1 day-old larvae). After plates are infested with mosquito larvae, a non-evaporative lid is used to cover the plate to reduce drying. Plates are held at room temperature for 3 days prior to grading. After 3 days, each well is observed and scored based on mortality.

[3] = tested on: Beet Armyworm (Spodoptera exigua, LAPHEG); assay: Insecticidal test for beet armyworm (BAW), 128-well diet tray assay; settings: 168 h, 50 μg/cm^2 of test compound on artificial diet, second instar larvae, 25° C., five to seven days, average of eight wells, read-out: BAW % Control (or Mortality) rating
Protocol: Insecticidal Test for Beet Armyworm (Spodoptera exigua, LAPHEG) (“BAW”)
as §1, with “beet armyworm (BAW; Spodoptera exigua:” for “cabbage looper (CL; Trichloplusia ni:”, “BAW” for “CL”

Compound: CC(C)c1ccccc1N1C(=O)CS/C1=N\C(=O)NCCc1ccc(NC(=O)Nc2ccc(OC(F)(F)F)cc2)cc1 [Compound A16, (Z)-1-(4-(2-(3-(3-(2-Isopropylphenyl)-4-oxothiazolidin-2-ylidene)ureido)ethyl)phenyl)-3-(4-(trifluoromethoxy)phenyl)urea]
- mortality at 50 µg/cm2 [1]: 50 to 100%
- YFM % Control (or Mortality) rating [2]: A (80-100)
- mortality at 50 µg/cm2 [3]: 50 to 100%

Compound: O=C(/N=C1\SCC(=O)N1c1cccc2c1CCCC2)NCCc1ccc(NC(=O)Nc2ccc(OC(F)(F)F)cc2)cc1 [Compound A24, (Z)-1-(4-(2-(3-(4-Oxo-3-(5,6,7,8-tetrahydronaphthalen-1-yl)thiazolidin-2-ylidene)ureido)ethyl)phenyl)-3-(4-(trifluoromethoxy)phenyl)urea]
- mortality at 50 µg/cm2 [1]: 50 to 100%
- YFM % Control (or Mortality) rating [2]: B (More than 0-Less than 80)
- mortality at 50 µg/cm2 [3]: 50 to 100%

Compound: Cc1ccc(C(C)C)c(-n2ccs/c2=N\C(=O)NCCc2ccc(NC(=O)Nc3ccc(C(F)(F)F)cc3)cc2)c1 [Compound A14, (Z)-1-(4-(2-(3-(3-(2-Isopropyl-5-methylphenyl)thiazol-2(3H)-ylidene)ureido)ethyl)phenyl)-3-(4-(trifluoromethyl)phenyl)urea]
- mortality at 50 µg/cm2 [1]: 50 to 100%
- YFM % Control (or Mortality) rating [2]: A (80-100)
- mortality at 50 µg/cm2 [3]: 50 to 100%

Compound: Cc1cc(Cl)c(N2C(=O)CS/C2=N\C(=O)NC(C)Cc2ccc(NC(=O)Nc3ccc(OC(F)(F)F)cc3)cc2)cc1C (stereo not drawn) [Compound A41, (Z)-1-(4-(2-(3-(3-(2-Chloro-4,5-dimethylphenyl)-4-oxothiazolidin-2-ylidene)ureido)propyl)phenyl)-3-(4-(trifluoromethoxy)phenyl)urea]
- mortality at 50 µg/cm2 [1]: 50 to 100%
- YFM % Control (or Mortality) rating [2]: B (More than 0-Less than 80)
- mortality at 50 µg/cm2 [3]: 50 to 100%

Compound: Cc1ccc(OCC(F)(F)F)c(N2C(=O)CS/C2=N\C(=O)Nc2ccc(C(=O)NNc3ccc(OC(F)(F)F)cc3)cc2)c1 [Compound A3, (Z)-1-(3-(5-methyl-2-(2,2,2-trifluoroethoxy)phenyl)-4-oxothiazolidin-2-ylidene)-3-(4-(2-(4-(trifluoromethoxy)phenyl)hydrazine-1-carbonyl)phenyl)urea]
- mortality at 50 µg/cm2 [1]: 50 to 100%
- YFM % Control (or Mortality) rating [2]: D (No activity noticed in this bioassay)
- mortality at 50 µg/cm2 [3]: 50 to 100%

Compound: Cc1ccc(C(C)C)c(N2C(=O)CS/C2=N\C(=O)Nc2ccc(NC(=S)Nc3ccc(OC(F)(F)F)cc3)cc2)c1 [Compound A45, (Z)-1-(3-(2-isopropyl-5-methylphenyl)-4-oxothiazolidin-2-ylidene)-3-(4-(3-(4-(trifluoromethoxy)phenyl)thioureido)phenyl)urea]
- mortality at 50 µg/cm2 [1]: 50 to 100%
- YFM % Control (or Mortality) rating [2]: A (80-100)
- mortality at 50 µg/cm2 [3]: 50 to 100%

Compound: Cc1ccc(C(C)C)c(N2C(=O)CS/C2=N\C(=O)NCCc2ccc(NCC(=O)c3ccc(OC(F)(F)F)cc3)cc2)c1 [Compound A1, (Z)-1-(3-(2-isopropyl-5-methylphenyl)-4-oxothiazolidin-2-ylidene)-3-(4-((2-oxo-2-(4-(trifluoromethoxy)phenyl)ethyl)amino)phenethyl)urea]
- mortality at 50 µg/cm2 [1]: 50 to 100%
- YFM % Control (or Mortality) rating [2]: A (80-100)
- mortality at 50 µg/cm2 [3]: 50 to 100%

Compound: CCc1cccc(C)c1N1C(=O)CS/C1=N\C(=O)NC(C)Cc1ccc(NC(=O)Nc2ccc(OC(F)(F)F)cc2)cc1 (stereo not drawn) [Compound A40, (Z)-1-(4-(2-(3-(3-(2-Ethyl-6-methylphenyl)-4-oxothiazolidin-2-ylidene)ureido)propyl)phenyl)-3-(4-(trifluoromethoxy)phenyl)urea]
- mortality at 50 µg/cm2 [1]: 50 to 100%
- YFM % Control (or Mortality) rating [2]: A (80-100)
- mortality at 50 µg/cm2 [3]: 50 to 100%

Compound: Cc1ccc(C(C)C)c(N2C(=O)CS/C2=N\C(=O)Nc2ccc(CCNC(=O)c3ccc(OC(F)(F)F)cc3)cc2)c1 [Compound A50, (Z)—N-(4-(3-(3-(2-isopropyl-5-methylphenyl)-4-oxothiazolidin-2-ylidene)ureido)phenethyl)-4-(trifluoromethoxy)benzamide]
- mortality at 50 µg/cm2 [1]: 50 to 100%
- YFM % Control (or Mortality) rating [2]: A (80-100)
- mortality at 50 µg/cm2 [3]: 50 to 100%

Compound: O=C(/N=C1\SCC(=O)N1c1cc(Cl)ccc1OCC(F)(F)F)Nc1ccc(NNC(=O)c2ccc(OC(F)(F)F)cc2)cc1 [Compound A6, (Z)-1-(3-(5-Chloro-2-(2,2,2-trifluoroethoxy)phenyl)-4-oxothiazolidin-2-ylidene)-3-(4-(2-(4-(trifluoromethoxy)benzoyl)hydrazinyl)phenyl)urea]
- mortality at 50 µg/cm2 [1]: 0%
- YFM % Control (or Mortality) rating [2]: D (No activity noticed in this bioassay)
- mortality at 50 µg/cm2 [3]: 0%

Compound: Cc1ccc(C(C)C)c(N2C(=O)CS/C2=N\C(=O)NC(C)Cc2ccc(NC(=O)Nc3ccc(OC(F)(F)F)cc3)cc2)c1 (stereo not drawn) [Compound A26, (Z)-1-(3-(2-Isopropyl-5-methylphenyl)-4-oxothiazolidin-2-ylidene)-3-(1-(4-(3-(4-(trifluoromethoxy)phenyl)ureido)phenyl)propan-2-yl)urea]
- mortality at 50 µg/cm2 [1]: 50 to 100%
- YFM % Control (or Mortality) rating [2]: A (80-100)
- mortality at 50 µg/cm2 [3]: 50 to 100%

Compound: CC(C)c1ccc(Cl)cc1N1C(=O)CS/C1=N\C(=O)NCCc1ccc(NC(=O)Nc2ccc(OC(F)(F)F)cc2)cc1 [Compound A15, (Z)-1-(4-(2-(3-(3-(5-Chloro-2-isopropylphenyl)-4-oxothiazolidin-2-ylidene)ureido)ethyl)phenyl)-3-(4-(trifluoromethoxy)phenyl)urea]
- mortality at 50 µg/cm2 [1]: 50 to 100%
- YFM % Control (or Mortality) rating [2]: A (80-100)
- mortality at 50 µg/cm2 [3]: 50 to 100%

Compound: Cc1ccc(OCC(F)(F)F)c(N2C(=O)CS/C2=N\C(=O)NCCc2ccc(NC(=O)Nc3ccc(OC(F)(F)F)cc3)cc2)c1 [Compound A19, (Z)-1-(4-(2-(3-(3-(5-Methyl-2-(2,2,2-trifluoroethoxy)phenyl)-4-oxothiazolidin-2-ylidene)ureido)ethyl)phenyl)-3-(4-(trifluoromethoxy)phenyl)urea]
- mortality at 50 µg/cm2 [1]: 50 to 100%
- YFM % Control (or Mortality) rating [2]: B (More than 0-Less than 80)
- mortality at 50 µg/cm2 [3]: 50 to 100%

Compound: Cc1ccc(C(C)C)c(N2C(=O)CS/C2=N\C(=O)Nc2ccc(NS(=O)(=O)c3ccc(OC(F)(F)F)cc3)cc2)c1 [Compound A51, (Z)—N-(4-(3-(3-(2-isopropyl-5-methylphenyl)-4-oxothiazolidin-2-ylidene)ureido)phenyl)-4-(trifluoromethoxy)benzenesulfonamide]
- mortality at 50 µg/cm2 [1]: 50 to 100%
- YFM % Control (or Mortality) rating [2]: B (More than 0-Less than 80)
- mortality at 50 µg/cm2 [3]: 0%

Compound: Cc1ccc(C(C)C)c(N2C(=O)CS/C2=N\C(=O)Nc2ccc(NC(=O)Nc3ccc(OC(F)(F)F)cc3)cc2)c1 [Compound A7, (Z)-1-(3-(2-isopropyl-5-methylphenyl)-4-oxothiazolidin-2-ylidene)-3-(4-(3-(4-(trifluoromethoxy)phenyl)ureido)phenyl)urea]
- mortality at 50 µg/cm2 [1]: 50 to 100%
- YFM % Control (or Mortality) rating [2]: A (80-100)
- mortality at 50 µg/cm2 [3]: 50 to 100%

Compound: Cc1ccc(OCC(F)(F)F)c(N2C(=O)CS/C2=N\C(=O)NC(C)Cc2ccc(NC(=O)Nc3ccc(OC(F)(F)F)cc3)cc2)c1 (stereo not drawn) [Compound A38, (Z)-1-(4-(2-(3-(3-(5-Methyl-2-(2,2,2-trifluoroethoxy)phenyl)-4-oxothiazolidin-2-ylidene)ureido)propyl)phenyl)-3-(4-(trifluoromethoxy)phenyl)urea]
- mortality at 50 µg/cm2 [1]: 50 to 100%
- YFM % Control (or Mortality) rating [2]: B (More than 0-Less than 80)
- mortality at 50 µg/cm2 [3]: 50 to 100%

Compound: Cc1ccc(C(C)C)c(N2C(=O)CS/C2=N\C(=O)NCCc2ccc(NC(=S)Nc3ccc(OC(F)(F)F)cc3)cc2)c1 [Compound A46, (Z)-1-(3-(2-isopropyl-5-methylphenyl)-4-oxothiazolidin-2-ylidene)-3-(4-(3-(4-(trifluoromethoxy)phenyl)thioureido)phenethyl)urea]
- mortality at 50 µg/cm2 [1]: 50 to 100%
- YFM % Control (or Mortality) rating [2]: A (80-100)
- mortality at 50 µg/cm2 [3]: 50 to 100%

Compound: Cc1ccc(C(C)C)c(N2C(=O)CS/C2=N\C(=O)NC(C)Cc2ccc(NC(=O)Nc3ccc(C(F)(F)F)cc3)cc2)c1 (stereo not drawn) [Compound A27, (Z)-1-(4-(2-(3-(3-(2-Isopropyl-5-methylphenyl)-4-oxothiazolidin-2-ylidene)ureido)propyl)phenyl)-3-(4-(trifluoromethyl)phenyl)urea]
- mortality at 50 µg/cm2 [1]: 50 to 100%
- YFM % Control (or Mortality) rating [2]: A (80-100)
- mortality at 50 µg/cm2 [3]: 50 to 100%

— patent publication US11332452B2, “Pesticidal compositions and methods” (priority 2019, dated 2022)
